A value given as a limit tells only on which side of the number the result lay.

Test [1] deals with HMC3 human microglia cells. The test is described as follows: Flow cytometry of microglia activation biomarkers. In kind it is cell-based. Conditions: 300 ng/mL, 24 hr. How it is done: (§1) Human microglial cell line HMC3 (CRL-3304) was purchased from ATCC (American Type Culture Collection). HMC3 cell line was cultured in DMEM medium with 10% FBS, 1% L-glutamine, and 1% penicillin/streptomycin. Cells were maintained in 37° C. incubator at 5% CO2.
HMC3 cells were resuspended, counted using the LUNA-II Automated Cell Counter, seeded in the 6-well plate (300 K cells/2 mL medium/well), and incubated overnight to allow cells to attach. Cells were treated with TNF-α or IFN-γ at five different concentrations (0, 10, 30, 100, 300 ng/mL) for 24 hr to induce cell activation. The supernatant medium was completely aspirated and 1 mL of fresh DMEM was added to wash the cell layer to remove detached cells and debris. The attached cells were resuspended and washed with PBS. Cells were washed with FACS buffer (2% FBS in PBS) prior to incubation with Zombie Violet Fixable Viability Dye (#423114, Biolegend, 1:500 dilution) and Human Fe Receptor Blocking Solution (#422302, Biolegend, 1:20) diluted in FACS buffer at RT for 10 min in the dark. Cells were then washed with FACS buffer and incubated at RT for 20 min with the following cell-surface antibodies: FITC anti-MHC II (#361706, Biolegend), PerCP/Cy5.5 anti-CD11b (#301328, Biolegend), BV605 anti-CD40 (#334336, Biolegend), PE anti-CD86 (#374206, Biolegend), PE/Cy7 anti-CD163 (#326514, Biolegend), APC anti-CD206 (#321110, Biolegend), and PerCP/Cy5.5 anti-CD14 (#367110, Biolegend). All of the cell-surface antibodies were diluted 1:20 in FACS buffer. Cells were permeabilized using the Transcription Factor Fixation/Permeabilization Buffer Set (#424401, Biolegend). Then cells were incubated with the following intracellular antibodies: APC/Cy7 anti-CD68 (#333822, Biolegend), purified anti-IBA1 (#PA5-27436, Invitrogen), Goat anti-Rabbit-Alexa Fluor 647 (#A21245, Invitrogen), purified anti-GFAP (#644702, Biolegend), and Goat anti-Mouse-Alexa Fluor 488 (#11029, Invitrogen). All of the intracellular antibodies were diluted 1:100 in the Permeabilization buffer (lx). […]

Test [2] relates to HMC3 human microglia cells. The experiment in a line: Cell viability assay by AO/PI stain. In kind it is cell-based. Conditions: for microglia death: 300 ng/mL, 24 hr. How it is done: as §1
HMC3 cells were resuspended, counted using the LUNA-II Automated Cell Counter, seeded in the 6-well plate (300 K cells/2 mL medium/well), and incubated overnight to allow cells to attach. Cells were treated with TNF-α or IFN-γ at five different concentrations (0, 10, 30, 100, 300 ng/mL) for 24 hr to induce cell activation. The supernatant medium was completely aspirated and 1 mL of fresh DMEM was added to wash the cell layer to remove detached cells and debris. The attached cells were resuspended and washed with PBS. Cells were washed with FACS buffer (2% FBS in PBS) prior to incubation with Zombie Violet Fixable Viability Dye (#423114, Biolegend, 1:500 dilution) and Human Fe Receptor Blocking Solution (#422302, Biolegend, 1:20) diluted in FACS buffer at RT for 10 min in the dark. Cells were then washed with FACS buffer and incubated at RT for 20 min with the following cell-surface antibodies: FITC anti-MHC II (#361706, Biolegend), PerCP/Cy5.5 anti-CD11b (#301328, Biolegend), BV605 anti-CD40 (#334336, Biolegend), PE anti-CD86 (#374206, Biolegend), PE/Cy7 anti-CD163 (#326514, Biolegend), APC anti-CD206 (#321110, Biolegend), and PerCP/Cy5.5 anti-CD14 (#367110, Biolegend). All of the cell-surface antibodies were diluted 1:20 in FACS buffer. Cells were permeabilized using the Transcription Factor Fixation/Permeabilization Buffer Set (#424401, Biolegend). Then cells were incubated with the following intracellular antibodies: APC/Cy7 anti-CD68 (#333822, Biolegend), purified anti-IBA1 (#PA5-27436, Invitrogen), Goat anti-Rabbit-Alexa Fluor 647 (#A21245, Invitrogen), purified anti-GFAP (#644702, Biolegend), and Goat anti-Mouse-Alexa Fluor 488 (#11029, Invitrogen). All of the intracellular antibodies were diluted 1:100 in the Permeabilization buffer (lx). Cells were washed with Permeabilization buffer and fixed in Fixation Buffer (#420801, Biolegend). Flow cytometry was performed using the Attune NxT Acoustic Focusing Cytometer (Thermo Fisher Scientific). Analysis of flow cytometry data was performed via FCS Express 7 (DeNovo Software).
Cell viability was assessed with a LUNA-FL Automated fluorescence cell counter. Viable nucleated cells show green fluorescence and dying nucleated cells show red fluorescence. 18 µL of sample was mixed with 2 μL Acridine Orange/Propidium Iodide (AO/PI) Stain.
(§2) All the data were presented as mean±standard error from at least three times, each done in triplicate. The statistical significance between two groups was determined by Student's t test, whereas the comparisons of multiple groups were carried out by one-way ANOVA, followed by Bonferroni's post-test using GraphPad Prism 7 (GraphPad Software, Inc.). A probability value of * p<0.05 was considered to be significant.

In test [3] the test system is HMC3 human microglia cells. The experiment in a line: MSD U-PLEX chemokine secretion induced by TNF-α. Format: cell-based. To be noted: 0.3 μg/mL TNF-α, 24 hours; for inhibition at 3 µM: Homo sapiens, HMC3. Here is the method:
as §1
(§3) HMC3 cells were resuspended, counted using the LUNA-II Automated Cell Counter, seeded in the 6-well plate (400 K cells/2 mL medium/well), and incubated overnight to allow cells to attach. The media and detached cells were removed next day. The cell layer was washed three times in PBS and once in serum- and phenolred-free DMEM (SPFM). […] The conditioned medium was collected and centrifuged at 1,000×RCF (g) for 5 min to pellet detached cells and large debris, which was subsequently passed through a 0.22 μm filter with PVDF membrane to remove smaller debris. Samples of the supernatant medium were put in a CoolRack (#07210041, Fisher Scientific) on dry ice for Snap-freezing and kept at −80° C. until use.
(§4) Meso-scale U-PLEX plates that detect a cytokine panel including IL-1β, IL-2, IL-4, IL-6, IL-8, IL-10, IFN-γ, TNF-α, and a chemokine panel including IP-10/CXCL10, MCP-1/CCL2, MIP-1α/CCL3, MIP-1P/CCL4, Eotaxin/CCL11, were used as per manufacture's protocol. 25 μL of the conditioned medium was used in each well of the MSD plates to detect the analytes. The plates were then analyzed on an MSD QuickPlex SQ120 instrument.
as §2

Test [4] concerns HMC3 human microglia cells. The experiment in a line: MSD U-PLEX cytokine secretion induced by TNF-α. In kind it is cell-based. Details: increase in IL-1β secretion compared to untreated HMC3 cells / increase in IL-6 secretion compared to untreated HMC3 cells / increase in IL-8 secretion compared to untreated HMC3 cells / IFN-γ secretion: dose or concentration left out as unconfirmed. To be noted: for inhibition at 3 µM: Homo sapiens, HMC3. How it is done: as §1, §3, §4, §2

The subject of test [5] is H5N1 virus. Conditions: after H5N1 virus infection; cited from earlier work.

On to “IFN-γ: recombinant human IFN-γ, used to activate HMC3 microglia”, for which, in test [1], the “expression of anti-inflammatory microglia biomarkers (CD163 and CD206)” value was “no alteration”; the “expression of inflammatory microglia biomarkers” value is listed as “increased protein expression”. This compound displayed a microglia death in test [2] of 19.7%.
For `O=C(O)c1cc(=O)c2c(OCC(F)COc3cccc4oc(C(=O)O)cc(=O)c34)cccc2o1` [F-cromolyn], the “extracellular IP-10 (CXCL10)” value in test [3] (0.3 μM) is “can inhibit”. For the same compound, the “extracellular MCP-1 (CCL2)” value in test [3] (0.3 μM) is “can inhibit”. Further, in test [3] (0.3 μM), the “extracellular MIP-1α (CCL3)” value is “can inhibit”. For the same compound, the “extracellular MIP-1β (CCL4)” value in test [3] (0.3 μM) is on record as “can inhibit”. Further, the inhibition at 3 µM in test [3] (read-out: inhibition of IP-10 (CXCL10)) is greater than 40%; in test [3] (read-out: inhibition of MCP-1 (CCL2)) it was greater than 40%; in test [3] (read-out: inhibition of MIP-1α (CCL3)) it was 36%; in test [3] (read-out: inhibition of MIP-1β (CCL4)), greater than 40%; in test [4] (TNF-α induced, 24 hr, read-out: inhibition of IFN-γ), greater than 50%; in test [4] (TNF-α induced, 24 hr, read-out: inhibition of IL-1β), greater than 50%. For the same compound, the inhibition at 3 µM was determined as 39.8% in test [4] (TNF-α induced, 24 hr, read-out: inhibition of IL-6) and 27.9% in test [4] (TNF-α induced, 24 hr, read-out: inhibition of IL-8). Moreover, the IFN-γ concentration entry in test [4] (0.3 μM, TNF-α induced, 24 hr) is recorded as “decreased”. For the same compound, the IL-1β concentration result in test [4] (0.3 μM, TNF-α induced, 24 hr) is listed as “decreased”. Besides, in test [4] (0.3 μM, TNF-α induced, 24 hr), the IL-6 concentration result was “decreased”. For the same compound, the IL-8 concentration entry in test [4] (0.3 μM, TNF-α induced, 24 hr) is “decreased”. Besides, the “TNF-α induced cell death” value in test [2] (0.3 μM, TNF-α 0.3 μg/mL) is reported as “significantly reduced cell death”.
In the case of TNF-α, the “expression of inflammatory microglia biomarkers” value in test [1] is on record as “increases the expression”. In addition, in test [4] (24 hours), the IFN-γ secretion result is given as “caused the previously quiescent cells to secrete IFN-γ”, the “increase in IL-1β secretion compared to untreated HMC3 cells” value is on record as greater than 177 fold, the “increase in IL-6 secretion compared to untreated HMC3 cells” value was greater than 177 fold and the “increase in IL-8 secretion compared to untreated HMC3 cells” value is greater than 177 fold. This compound came in with a microglia death in test [2] of 15.6%. Besides, the “cell death, share of the total population” value in test [2] (TNF-α 0.3 μg/mL) is on record as “approximately 20%”.
Turning to `CN1CCC(=C2c3ccccc3CC(=O)c3sccc32)CC1` [ketotifen], in test [5], the lung injury result is reported as “improved”.

Source of the values: patent publication US12458622B2, “Methods of treatment of coronavirus-induced inflammation conditions” (priority 2020, dated 2025).
